Each block holds one molecule with its values, some of them ahead of it.
Target: T1, hNav1.8 (Homo sapiens, UniProt Q9Y5Y9)
T1 construct: host or cells: HEK cells, stably transfected
Assay: hNav1.8 whole-cell patch-clamp electrophysiology (conventional or PatchXpress 7000) in stably transfected HEK cells
Assay type: cell-based
Conditions: estimated IC50 calculated from single point % inhibition; HEK cells expressing hNav1.8; 8 sec prepulse to V1/2, 20 msec step to 0 mV; average of replicates; read-out: Nav1.8 EIC50
Summary of the method: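 Whole-cell voltage clamp at 22-24 °C in HEK cells stably expressing hNav1.8, manually or on PatchXpress. Current evoked by 20 msec step to 0 mV after 8 s prepulse to each cell's inactivation V1/2; single-concentration % inhibition converted to estimated IC50, using only 20-80% inhibition values, averaged over replicates.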

T1 sequence (Q9Y5Y9 whole entry): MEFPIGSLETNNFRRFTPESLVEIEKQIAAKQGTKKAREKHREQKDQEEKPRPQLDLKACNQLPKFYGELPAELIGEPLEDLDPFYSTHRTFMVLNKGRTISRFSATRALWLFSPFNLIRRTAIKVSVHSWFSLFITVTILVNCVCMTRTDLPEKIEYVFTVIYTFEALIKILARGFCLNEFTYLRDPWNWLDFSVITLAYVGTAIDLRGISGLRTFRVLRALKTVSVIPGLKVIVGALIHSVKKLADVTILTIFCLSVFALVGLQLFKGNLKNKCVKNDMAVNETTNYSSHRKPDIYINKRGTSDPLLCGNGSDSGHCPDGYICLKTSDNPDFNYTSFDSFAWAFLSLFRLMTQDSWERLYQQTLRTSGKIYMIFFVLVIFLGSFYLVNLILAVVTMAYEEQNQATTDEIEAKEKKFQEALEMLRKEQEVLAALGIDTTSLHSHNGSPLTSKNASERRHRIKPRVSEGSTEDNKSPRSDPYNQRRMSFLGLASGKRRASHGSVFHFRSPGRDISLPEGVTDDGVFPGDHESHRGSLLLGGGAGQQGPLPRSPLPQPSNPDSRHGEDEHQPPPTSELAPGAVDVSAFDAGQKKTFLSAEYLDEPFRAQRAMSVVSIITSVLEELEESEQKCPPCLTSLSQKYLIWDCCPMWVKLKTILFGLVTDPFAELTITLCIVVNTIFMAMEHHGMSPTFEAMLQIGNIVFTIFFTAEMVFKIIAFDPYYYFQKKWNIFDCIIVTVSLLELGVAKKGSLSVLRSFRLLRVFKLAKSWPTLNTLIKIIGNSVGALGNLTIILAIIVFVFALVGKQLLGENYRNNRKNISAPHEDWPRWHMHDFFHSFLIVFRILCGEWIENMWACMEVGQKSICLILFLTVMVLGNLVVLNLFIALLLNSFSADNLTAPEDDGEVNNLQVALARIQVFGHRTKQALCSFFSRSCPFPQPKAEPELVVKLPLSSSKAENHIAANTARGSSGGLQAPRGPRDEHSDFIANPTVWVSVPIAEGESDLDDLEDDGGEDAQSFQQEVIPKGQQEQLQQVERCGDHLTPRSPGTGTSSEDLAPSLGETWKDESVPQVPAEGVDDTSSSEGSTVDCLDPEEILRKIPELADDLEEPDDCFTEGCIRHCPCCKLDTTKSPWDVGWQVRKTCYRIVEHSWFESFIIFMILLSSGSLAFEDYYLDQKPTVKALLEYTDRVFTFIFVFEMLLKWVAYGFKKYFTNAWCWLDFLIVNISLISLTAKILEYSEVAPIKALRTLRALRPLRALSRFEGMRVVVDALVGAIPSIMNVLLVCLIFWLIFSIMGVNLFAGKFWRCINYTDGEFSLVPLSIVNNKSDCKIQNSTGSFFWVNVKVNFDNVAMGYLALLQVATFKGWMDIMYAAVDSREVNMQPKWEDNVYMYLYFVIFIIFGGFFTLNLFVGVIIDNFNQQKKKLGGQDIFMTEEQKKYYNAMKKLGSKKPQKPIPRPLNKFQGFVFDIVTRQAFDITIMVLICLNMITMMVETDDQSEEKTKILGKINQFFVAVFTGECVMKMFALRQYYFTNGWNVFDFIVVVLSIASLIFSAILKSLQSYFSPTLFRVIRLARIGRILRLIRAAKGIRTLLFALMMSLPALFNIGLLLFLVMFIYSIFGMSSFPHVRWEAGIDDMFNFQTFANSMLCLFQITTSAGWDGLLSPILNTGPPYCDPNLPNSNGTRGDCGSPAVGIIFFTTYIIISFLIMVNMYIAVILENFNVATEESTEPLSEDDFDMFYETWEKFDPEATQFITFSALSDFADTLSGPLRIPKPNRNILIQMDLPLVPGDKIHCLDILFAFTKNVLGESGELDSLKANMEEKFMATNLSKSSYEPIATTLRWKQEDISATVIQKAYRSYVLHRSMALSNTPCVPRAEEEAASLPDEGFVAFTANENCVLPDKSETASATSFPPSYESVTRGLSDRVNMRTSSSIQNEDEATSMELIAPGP

Compound: CO[C@H](C)[C@H](N)c1nc2cc(-c3cc(F)c(C#N)c(F)c3)ccc2[nH]1 [Example 87, 4-{2-[(1R,2R)-1-Amino-2-methoxypropyl]-1H-benzimidazol-5-yl}-2,6-difluorobenzonitrile]
- IC50: 1.33 µM

Compound: CCC(C)(C)c1ccc2[nH]c(C(C)(C)N)nc2c1 [Example 68, 2-[5-(2-Methylbutan-2-yl)-1H-benzimidazol-2-yl]propan-2-amine]
- IC50: 0.635 µM

Compound: CCCC[C@@H](N)c1nc2cc(-c3ccc(C#N)cc3)ccc2[nH]1 [Example 58, 4-{2-[(1R)-1-aminopentyl]-1H-benzimidazol-5-yl}benzonitrile]
- IC50: 0.537 µM

Compound: CCC(C)(C)c1ccc2[nH]c([C@@H](C)N)nc2c1 [Example 41, (1R)-1-[5-(2-Methylbutan-2-yl)-1H-benzimidazol-2-yl]ethanamine]
- IC50: 0.648 µM

Compound: CCC(C)(C)c1ccc2[nH]c([C@@H](N)[C@@H](C)OC)nc2c1 [Example 38, (1R,2R)-2-Methoxy-1-[5-(2-methylbutan-2-yl)-1H-benzimidazol-2-yl]propan-1-amine]
- IC50: 0.0419 µM

Compound: CC(C)C[C@H](N)c1nc2cc(C(C)(C)C)ccc2[nH]1 [Example 14, (1S)-1-(5-tert-Butyl-1H-benzimidazol-2-yl)-3-methylbutan-1-amine]
- IC50: 0.476 µM

Compound: CC(C)(C)c1ccc2[nH]c([C@H](N)C(C)(C)C)nc2c1 [Example 15, (1R)-1-(5-tert-Butyl-1H-benzimidazol-2-yl)-2,2-dimethylpropan-1-amine]
- IC50: 0.123 µM

Compound: N#Cc1ccc(-c2ccc3[nH]c([C@@H]4CCCCN4)nc3c2)cc1 [Example 51, 4-{2-[(2S)-Piperidin-2-yl]-1H-benzimidazol-5-yl}benzonitrile]
- IC50: 3.13 µM

Compound: CCCC[C@H](N)c1nc2cc(C(C)(C)C)ccc2[nH]1 [Example 11, (1S)-1-(5-tert-Butyl-1H-benzimidazol-2-yl)pentan-1-amine]
- IC50: 0.0297 µM

Compound: C[C@@H](N)c1nc2cc(C(C)(C)C)ccc2[nH]1 [Example 10, (1R)-1-(5-tert-Butyl-1H-benzimidazol-2-yl)ethanamine]
- IC50: 0.607 µM

Compound: CC(C)(N)c1nc2cc(-c3cccc(C#N)c3)ccc2[nH]1 [Example 72, 3-[2-(1-Amino-1-methylethyl)-1H-benzimidazol-5-yl]benzonitrile]
- IC50: 2.49 µM

Compound: CC(C)[C@H](N)c1nc2cc(C(C)(C)C)ccc2[nH]1 [Example 5, (1S)-1-(5-tert-Butyl-1H-benzimidazol-2-yl)-2-methylpropan-1-amine]
- IC50: 0.364 µM

Compound: CO[C@H](C)[C@H](N)c1nc2cc(C(C)(C)C)ccc2[nH]1 [Example 21, (1R,2R)-1-(5-tert-Butyl-1H-benzimidazol-2-yl)-2-methoxypropan-1-amine]
- IC50: 0.0326 µM

Compound: N#Cc1ccc(-c2ccc3[nH]c([C@@H](N)c4ccccc4)nc3c2)cc1 [Example 42, 4-{2-[(S)-Amino(phenyl)methyl]-1H-benzimidazol-5-yl}benzonitrile]
- IC50: 0.122 µM

The remaining lines, values ahead:

- IC50: 0.0187 µM
Compound: CO[C@H](C)[C@H](N)c1nc2cc(-c3ccc(C#N)cc3F)ccc2[nH]1 [Example 90, 4-{2-[(1R,2R)-1-Amino-2-methoxypropyl]-1H-benzimidazol-5-yl}-3-fluorobenzonitrile]

- IC50: 0.0445 µM
Compound: C[C@@H](C(N)=O)[C@H](N)c1cn2cc(C(C)(C)C)ccc2n1 [Example 157, (2R,3S)-3-Amino-3-(6-tert-butylimidazo[1,2-a]pyridin-2-yl)-2-methylpropanamide]

- IC50: 0.666 µM
Compound: CO[C@H](C)[C@H](N)c1nc2cc(-c3ccc(C#N)cc3)c(F)cc2[nH]1 [Example 91, 4-{2-[(1R,2R)-1-Amino-2-methoxypropyl]-6-fluoro-1H-benzimidazol-5-yl}benzonitrile]

- IC50: 0.222 µM
Compound: CC(C)(C)Cc1ccc2[nH]c(C3(N)Cc4ccccc4C3)nc2c1 [Example 116, 2-[6-(2,2-Dimethylpropyl)-1H-benzimidazol-2-yl]-2,3-dihydro-1H-inden-2-amine]

- IC50: 0.0546 µM
Compound: C[C@@H](C(N)=O)[C@H](N)c1cn2cc(-c3ccc(C#N)cc3)ccc2n1 [Example 156, (2R,3S)-3-Amino-3-[6-(4-cyanophenyl)imidazo[1,2-a]pyridin-2-yl]-2-methylpropanamide]

- IC50: 0.749 µM
Compound: CC[C@H](N)c1nc2cc(C3CCC3)ccc2[nH]1 [Example 113, 1-(5-Cyclobutyl-1H-benzimidazol-2-yl)propylamine]

- IC50: 0.207 µM
Compound: CNC(=O)[C@H](C)[C@H](N)c1nc2cc(C(C)(C)C)ccc2[nH]1 [Example 108, (2R,3S)-3-Amino-3-(6-tert-butyl-1H-benzimidazol-2-yl)-N,2-dimethylpropanamide]

- IC50: 0.134 µM
Compound: CC(N)(CO)c1nc2cc(-c3ccc(C#N)c(F)c3)ccc2[nH]1 (centres unmarked) [Example 150, 4-(2-(2-Amino-1-hydroxypropan-2-yl)-1H-benzo[d]imidazol-5-yl)-2-fluorobenzonitrile]

- IC50: 0.993 µM
Compound: C[C@@H](O)[C@H](N)c1nc2cc(-c3ccc(C#N)c(C#N)c3)ccc2[nH]1 [Example 88, 4-{2-[(1R,2R)-1-Amino-2-hydroxypropyl]-1H-benzimidazol-5-yl}benzene-1,2-dicarbonitrile]

- IC50: 0.284 µM
Compound: CO[C@H](C)[C@H](N)c1nc2cc(C3CCCC3)ccc2[nH]1 [Example 145, (1R,2R)-1-(5-Cyclopentyl-1H-benzo[d]imidazol-2-yl)-2-methoxypropan-1-amine]

- IC50: 0.0828 µM
Compound: CC[C@H](N)c1nc2cc(-c3ccc(C#N)cc3)ccc2[nH]1 [Example 81, 4-{2-[(1S)-1-Aminopropyl]-1H-benzimidazol-5-yl}benzonitrile]

- IC50: 0.0699 µM
Compound: [2H][13C]([2H])([2H])[C@@H](C(N)=O)[C@H](N)c1nc2cc(C(C)(C)C)ccc2[nH]1 [Example 105, (2R,3S)-3-Amino-3-(5-tert-butyl-1H-benzimidazol-2-yl)-2-(^13CD3-methyl)propanamide]

- IC50: 0.19 µM
Compound: C[C@@H](C(N)=O)[C@H](N)c1nc2c(Cl)c(-c3ccc(C#N)cc3)ccc2[nH]1 [Example 111, (2R,3S)-3-Amino-3-[4-chloro-5-(4-cyanophenyl)-1H-benzimidazol-2-yl]-2-methylpropanamide]

- IC50: 0.111 µM
Compound: CO[C@H](C)[C@H](N)c1nc2cc(-c3ccc(C#N)cc3C(F)(F)F)ccc2[nH]1 [Example 86, 4-{2-[(1R,2R)-1-Amino-2-methoxypropyl]-1H-benzimidazol-5-yl}-3-(trifluoromethyl)-benzonitrile]

- IC50: 0.0885 µM
Compound: CO[C@H](C)[C@H](N)c1nc2c(Cl)c(-c3ccc(C#N)c(F)c3)ccc2[nH]1 [Example 120, 4-{2-[(1R,2R)-1-Amino-2-methoxypropyl]-4-chloro-1H-benzimidazol-5-yl}-2-fluorobenzonitrile]
